Here are results for 30 compounds from US20230183237A1, “COMPETITIVE AND NONCOMPETITIVE INHIBITORS OF THE MUSCARINIC ACETYLCHOLINE RECEPTOR M5” (Vanderbilt University, priority 2020, published 2023).

The structures appear in SMILES notation.

For the test, the target named is T1, hM5 (Homo sapiens, UniProt P08912).
T1 construct: expressed in transfected cells
T1 sequence (P08912 1-532): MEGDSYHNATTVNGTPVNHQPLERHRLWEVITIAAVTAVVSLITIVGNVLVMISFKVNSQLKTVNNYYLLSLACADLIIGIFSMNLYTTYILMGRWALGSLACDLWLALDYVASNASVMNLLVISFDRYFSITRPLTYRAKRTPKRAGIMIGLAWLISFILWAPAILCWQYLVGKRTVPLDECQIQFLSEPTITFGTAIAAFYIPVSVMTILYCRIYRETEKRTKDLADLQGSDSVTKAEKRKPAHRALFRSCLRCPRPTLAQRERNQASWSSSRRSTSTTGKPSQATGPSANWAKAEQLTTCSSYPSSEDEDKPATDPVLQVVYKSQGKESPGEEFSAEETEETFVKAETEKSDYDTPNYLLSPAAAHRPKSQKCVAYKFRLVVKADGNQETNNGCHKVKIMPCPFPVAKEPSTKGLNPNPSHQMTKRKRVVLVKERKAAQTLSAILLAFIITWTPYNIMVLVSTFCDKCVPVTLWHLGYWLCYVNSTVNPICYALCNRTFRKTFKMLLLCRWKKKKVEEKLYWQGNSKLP
The experiment in a line: Calcium mobilization concentration-response (IC50 vs EC80 acetylcholine), CHO hM5. Format: cell-based. The following applies: CELL LINE hM5; calcium mobilization, EC80 acetylcholine addition; read-out: IC50. A digest of the protocol:
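IC50 values derive from percent maximal acetylcholine response after an EC80 ACh addition, measured as kinetic calcium fluorescence (static ratio, max−min). Test compounds were added 140 s before agonist. Cells: stable hM5-CHO in HEPES-buffered HBSS with 2.5 mM probenecid, pH 7.4; ≥3 independent triplicate determinations.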
Background: Calcium flux is commonly read through the fluorescence of an indicator in the cells.

Broadly, the IC50 is the midpoint of a concentration-inhibition curve. Regarding `Cc1c(C2CCN(S(=O)(=O)c3cnn(C)c3C(F)F)CC2)cn2ncnc2c1F` [Compound 307, 6-(1-((5-(Difluoromethyl)-1-methyl-1H-pyrazol-4-yl)sulfonyl)piperidin-4-yl)-8-fluoro-7-methyl-[1,2,4]triazolo[1,5-a]pyridine], the IC50 worked out at 17 nM.

On to `Cc1cc2ncnn2cc1C1(O)CCN(S(=O)(=O)c2cnn(C)c2C)CC1` [Compound 308, 1-((1,5-Dimethyl-1H-pyrazol-4-yl)sulfonyl)-4-(7-methyl-[1,2,4]triazolo[1,5-a]pyridin-6-yl)piperidin-4-ol], for which the IC50 is greater than 10000 nM.

On to `Cc1cc2ncnn2cc1C1(O)CCN(S(=O)(=O)c2cnc(C)n2C)CC1` [Compound 309, 1-((1,2-dimethyl-1H-imidazol-5-yl)sulfonyl)-4-(7-methyl-[1,2,4]triazolo[1,5-a]pyridin-6-yl)piperidin-4-ol], for which the IC50 is greater than 10000 nM.

On to `Cc1cc2ncnn2cc1C1(O)CCN(S(=O)(=O)c2ccc3c(c2)CCO3)CC1` [Compound 310, 1-((2,3-dihydrobenzofuran-5-yl)sulfonyl)-4-(7-methyl-[1,2,4]triazolo[1,5-a]pyridin-6-yl)piperidin-4-ol], for which the IC50 was greater than 10000 nM.

For the compound `Cc1cc(S(=O)(=O)N2CCC(c3nn4ccnc4cc3C)CC2)c(C)s1` [Compound 311, 6-(1-((2,5-dimethylthiophen-3-yl)sulfonyl)piperidin-4-yl)-7-methylimidazo[1,2-b]pyridazine], the IC50 was determined as 4900 nM.

As to `Cc1cc2nccn2nc1C1CCN(S(=O)(=O)c2cnn(C(F)F)c2C)CC1` [Compound 312, 6-(1-((1-(difluoromethyl)-5-methyl-1H-pyrazol-4-yl)sulfonyl)piperidin-4-yl)-7-methylimidazo[1,2-b]pyridazine], the IC50 came out at 877 nM.

In the case of `Cc1cc2nc(C(F)F)nn2cc1C1=CCN(S(=O)(=O)c2cnn3c2CCCC3)CC1` [Compound 316, 2-(difluoromethyl)-7-methyl-6-(1-((4,5,6,7-tetrahydropyrazolo[1,5-a]pyridin-3-yl)sulfonyl)-1,2,3,6-tetrahydropyridin-4-yl)-[1,2,4]triazolo[1,5-a]pyridine], the IC50 turned out to be 1200 nM.

Turning to `Cc1ncc(S(=O)(=O)N2CC=C(c3cn4nc(C(F)F)nc4cc3C)CC2)s1` [Compound 317, 5-((4-(2-(Difluoromethyl)-7-methyl-[1,2,4]triazolo[1,5-a]pyridin-6-yl)-3,6-dihydropyridin-1(2H)-yl)sulfonyl)-2methylthiazole], the IC50 stood at 6900 nM.

For the compound `Cc1nn(C)c(Cl)c1S(=O)(=O)N1CCC(c2cn3ncnc3c(F)c2C)CC1` [Compound 318, 6-(1-((5-chloro-1,3-dimethyl-1H-pyrazol-4-yl)sulfonyl)piperidin-4-yl)-8-fluoro-7-methyl-[1,2,4]triazolo[1,5-a]pyridine], the IC50 amounted to 15 nM.

On to `[2H]C([2H])([2H])n1nc(Cl)c(S(=O)(=O)N2CCC(c3cn4ncnc4c(F)c3C)CC2)c1C` [Compound 319, 6-(1-((3-chloro-5-methyl-1-(methyl-d3)-1H-pyrazol-4-yl)sulfonyl)piperidin-4-yl)-8-fluoro-7-methyl-[1,2,4]triazolo[1,5-a]pyridine], for which the IC50 was determined as 12 nM.

Regarding `Cc1cc2ncnn2cc1C1CCN(S(=O)(=O)c2cn(C)c(C)n2)CC1` [Compound 320, 6-(1-((1,2-dimethyl-1H-imidazol-4-yl)sulfonyl)piperidin-4-yl)-7-methyl-[1,2,4]triazolo[1,5-a]pyridine], the IC50 was 7200 nM.

`Cc1cc2ncnn2cc1C1CCN(S(=O)(=O)c2ncn(C)c2Cl)CC1` [Compound 321, 6-(1-((5-chloro-1-methyl-1H-imidazol-4-yl)sulfonyl)piperidin-4-yl)-7-methyl-[1,2,4]triazolo[1,5-a]pyridine]: the IC50 came to 1100 nM.

`Cc1cc2ncnn2cc1C1CCN(S(=O)(=O)c2cnc3n2CCCC3)CC1` [Compound 322, 7-methyl-6-(1-((5,6,7,8-tetrahydroimidazo[1,2-a]pyridin-3-yl)sulfonyl)piperidin-4-yl)-[1,2,4]triazolo[1,5-a]pyridine]: the IC50 turned out to be 9.8 nM.

For `Cc1cc2ncnn2cc1C1CCN(S(=O)(=O)c2cnc3ccccn23)CC1` [Compound 323, 6-(1-(imidazo[1,2-a]pyridin-3-ylsulfonyl)piperidin-4-yl)-7-methyl-[1,2,4]triazolo[1,5-a]pyridine], the IC50 turned out to be 16 nM.

Take `Cc1cc2ncnn2cc1C1CCN(S(=O)(=O)c2c(Cl)nc3sccn23)CC1` [Compound 324, 6-chloro-5-((4-(7-methyl-[1,2,4]triazolo[1,5-a]pyridin-6-yl)piperidin-1-yl)sulfonyl)imidazo[2,1-b]thiazole]: the IC50 was 13 nM.

Regarding `Cc1cc2ncnn2cc1C1CCN(S(=O)(=O)c2c(Cl)nn(C)c2C)CC1` [Compound 325, 6-(1-((3-chloro-1,5-dimethyl-1H-pyrazol-4-yl)sulfonyl)piperidin-4-yl)-7-methyl-[1,2,4]triazolo[1,5-a]pyridine], the IC50 stood at 25 nM.

In the case of `O=S(=O)(c1cnc2n1CCCC2)N1CCC(c2cn3ncnc3cc2F)CC1` [Compound 326, 7-fluoro-6-(1-((5,6,7,8-tetrahydroimidazo[1,2-a]pyridin-3-yl)sulfonyl)piperidin-4-yl)-[1,2,4]triazolo[1,5-a]pyridine], the IC50 came to 99 nM.

With `O=S(=O)(c1cnc2ccccn12)N1CCC(c2cn3ncnc3cc2F)CC1` [Compound 327, 7-fluoro-6-(1-(imidazo[1,2-a]pyridin-3-ylsulfonyl)piperidin-4-yl)-[1,2,4]triazolo[1,5-a]pyridine], the IC50 worked out at 774 nM.

Consider `O=S(=O)(c1c(Cl)nc2sccn12)N1CCC(c2cn3ncnc3cc2F)CC1` [Compound 328, 6-chloro-5-((4-(7-fluoro-[1,2,4]triazolo[1,5-a]pyridin-6-yl)piperidin-1-yl)sulfonyl)imidazo[2,1-b]thiazole], for which the IC50 amounted to 327 nM.

Take `Cc1c(S(=O)(=O)N2CCC(c3cn4ncnc4cc3F)CC2)c(Cl)nn1C` [Compound 329, 6-(1-((3-chloro-1,5-dimethyl-1H-pyrazol-4-yl)sulfonyl)piperidin-4-yl)-7-fluoro-[1,2,4]triazolo[1,5-a]pyridine]: the IC50 stood at 87 nM.

For the compound `Cn1ncc(S(=O)(=O)N2CCC(c3cn4ncnc4cc3Cl)CC2)c1C(F)(F)F` [Compound 330, 7-chloro-6-(1-((1-methyl-5-(trifluoromethyl)-1H-pyrazol-4-yl)sulfonyl)piperidin-4-yl)-[1,2,4]triazolo[1,5-a]pyridine], the IC50 came out at 52 nM.

`CCc1cc2ncnn2cc1C1CCN(S(=O)(=O)c2cnn(C)c2C(F)(F)F)CC1` [Compound 331, 7-ethyl-6-(1-((1-methyl-5-(trifluoromethyl)-1H-pyrazol-4-yl)sulfonyl)piperidin-4-yl)-[1,2,4]triazolo[1,5-a]pyridine]: the IC50 turned out to be 2600 nM.

For the compound `Cc1c(S(=O)(=O)N2CCC(c3cn4ncnc4cc3-c3ccn(C)n3)CC2)cnn1C` [Compound 332, 6-(1-((1,5-dimethyl-1H-pyrazol-4-yl)sulfonyl)piperidin-4-yl)-7-(1-methyl-1H-pyrazol-3-yl)-[1,2,4]triazolo[1,5-a]pyridine], the IC50 was greater than 10000 nM.

Take `Cn1ccc(-c2cc3ncnn3cc2C2CCN(S(=O)(=O)c3cnn4c3CCCC4)CC2)n1` [Compound 333, 7-(1-methyl-1H-pyrazol-3yl)-6-(1-((4,5,6,7-tetrahydropyrazolo[1,5-a]pyridin-3-yl)sulfonyl)piperidin-4-yl)-[1,2,4]triazolo[1,5-a]pyridine]: the IC50 is greater than 10000 nM.

Turning to `CCc1cc2ncnn2cc1C1CCN(S(=O)(=O)c2cnc3ccccn23)CC1` [Compound 334, 7-ethyl-6-(1-(imidazo[1,2-a]pyridin-3-ylsulfonyl)piperidin-4-yl)-[1,2,4]triazolo[1,5-a]pyridine], the IC50 worked out at 341 nM.

Regarding `CCc1cc2ncnn2cc1C1CCN(S(=O)(=O)c2cnc3n2CCCC3)CC1` [Compound 335, 7-ethyl-6-(1-((5,6,7,8-tetrahydroimidazo[1,2-a]pyridin-3-yl)sulfonyl)piperidin-4-yl)-[1,2,4]triazolo[1,5-a]pyridine], the IC50 turned out to be 83 nM.

`CCc1cc2ncnn2cc1C1CCN(S(=O)(=O)c2c(Cl)nc3sccn23)CC1` [Compound 336, 6-chloro-5-((4-(7-ethyl-[1,2,4]triazolo[1,5-a]pyridin-6-yl)piperidin-1-yl)sulfonyl)imidazo[2,1-b]thiazole]: the IC50 amounted to 106 nM.

Turning to `CCc1cc2ncnn2cc1C1CCN(S(=O)(=O)c2c(Cl)nn(C)c2C)CC1` [Compound 337, 6-(1-((3-chloro-1,5-dimethyl-1H-pyrazol-4-yl)sulfonyl)piperidin-4-yl)-7-ethyl-[1,2,4]triazolo[1,5-a]pyridine], the IC50 turned out to be 37 nM.

Consider `O=S(=O)(c1cnc2ccccn12)N1CCC(c2cn3ncnc3cc2C(F)(F)F)CC1` [Compound 338, 6-(1-(imidazo[1,2-a]pyridin-3-yl)sulfonyl)piperidin-4-yl)-7-(trifluoromethyl_-[1,2,4]triazolo[1,5-a]pyridine], for which the IC50 worked out at 164 nM.

In the case of `O=S(=O)(c1cnc2n1CCCC2)N1CCC(c2cn3ncnc3cc2C(F)(F)F)CC1` [Compound 339, 6-(1-((5,6,7.8-tetrahydroimidazo[1,2-a]pyridin-3-yl)sulfonyl)piperidin-4-yl)-7-(trifluoromethyl)-[1,2,4]triazolo[1,5-a]pyridine], the IC50 came out at 67 nM.
